Columns and labels:
[1] = Solubility test: precipitation behavior in aqueous solution kept at room temperature; type: physicochemical; design: key: ◯: Not precipitated; Δ: Not remarkably precipitated but fine particles are generated; X: Remarkably precipitated; conditions: dissolved at 50 to 60° C.
Procedure: Thereafter, the resulting solution was kept at room temperature to check a precipitation behavior over time. As Comparative Example, the same experiment was performed using phytospingosine.

Malassezia restricta = experiment: Antibacterial test (MIC, double dilution in 96-well plate); type: cell-based; conditions: P. ovale medium, cultured 32 to 48 hours
Procedure: (§1) As six representative microbes (fungi, and bacteria) causing skin diseases, each of Malassezia globosa, Malassezia restricta, Candia albicans (C. albicans), Aspergillus niger (A. niger), Enterococcus faecalis, and Brevundimonas vesicularis was seeded in a P. ovale medium, and cultured at 32° C. for 3 days while stirring. The resulting culture broth was diluted with P. ovale at a density of 1.0×10^7 CFU/mL, and the diluted culture broth was used as a test bacterial solution. […] (1) 200 μL of the sample solution prepared in (2) was added to the first row of a 96-well plate. 100 μL of P. ovale was added to the other wells. (2) After the first row of the mixtures were thoroughly mixed, 100 μL of each of the mixtures was taken, added to the second row, and then thoroughly mixed, and 100 μL of each of the mixtures was again taken, and added to the third row. Thereafter, this procedure was repeated to perform a double dilution. (3) After each of the microbes were cultured for 32 to 48 hours, a degree of suspension was used to determine whether the bacteria were growing. […] When it was difficult to determine whether the bacteria were growing due to the opaque mixed solution, the growth of the bacteria was observed under a microscope.

Enterococcus faecalis = experiment: as above; type: cell-based; conditions: P. ovale medium, cultured 32 to 48 hours
Procedure: as §1

[2] = tested on: Brevundimonas vesicularis; experiment: as above; type: cell-based; conditions: P. ovale medium, cultured 32 to 48 hours
Procedure: as §1

Malassezia globosa = experiment: as above; type: cell-based; conditions: P. ovale medium, cultured 32 to 48 hours
Procedure: as §1

[3] = tested on: Aspergillus niger (A. niger); experiment: as above; type: cell-based; conditions: P. ovale medium, cultured 32 to 48 hours
Procedure: as §1

[4] = tested on: Candia albicans (C. albicans); experiment: as above; type: cell-based; conditions: P. ovale medium, cultured 32 to 48 hours
Procedure: as §1

[5] = solvent isocetyl alcohol; cited from earlier work
[6] = 0.1% by weight in distilled water, 1 day
[7] = 0.1% by weight in distilled water, 7 days
[8] = 0.1% by weight in distilled water, 30 days
[9] = 1.0% by weight in distilled water, 1 day
[10] = 1.0% by weight in distilled water, 7 days
[11] = 1.0% by weight in distilled water, 30 days

Row | SMILES | precipitation behavior over time [1, 6] | precipitation behavior over time [1, 7] | precipitation behavior over time [1, 8] | precipitation behavior over time [1, 9] | precipitation behavior over time [1, 10] | precipitation behavior over time [1, 11] | minimum inhibitory concentration (MIC) (Malassezia restricta) | minimum inhibitory concentration (MIC) (Enterococcus faecalis) | minimum inhibitory concentration (MIC) [2] | minimum inhibitory concentration (MIC) (Malassezia globosa) | minimum inhibitory concentration (MIC) [3] | minimum inhibitory concentration (MIC) [4] | content dissolved in isocetyl alcohol [5]
1 | CCCCCCCCCCCCCC[C@@H](O)[C@@H](O)[C@H](CO)NCC1(O)OC[C@@H](O)[C@@H](O[C@H]2O[C@H](CO)[C@@H](O)[C@H](O)[C@H]2O)[C@@H]1O (stereo partly shown) [Example 1] | ◯ | ◯ | ◯ | ◯ | ◯ | ◯ | 0.001954 | 0.0039 | <0.00097 | 0.001954 | 0.25 | 0.0019 | 
2 | CCCCCCCCCCCCCC[C@@H](O)[C@@H](O)[C@H](CO)NCC1(O)OC[C@@H](O)[C@@H](O[C@H]2O[C@H](CO)[C@H](O)[C@H](O)[C@H]2O)[C@@H]1O (stereo partly shown) [Example 2] | ◯ | ◯ | ◯ | ◯ | ◯ | ◯ |  |  |  |  |  |  | 
3 | CCCCCCCCCCCCCC[C@@H](O)[C@@H](O)[C@@H](N)CO [Comparative Example, phytospingosine] | Δ | X | X | X | X | X | 0.001954 | 0.062 | <0.00097 | 0.001954 | 0.5 | 0.0312 | approximately 1 % by weight

Source: patent US10172777B2, “Phytospingosine derivative and composition containing same” (AMOREPACIFIC CORPORATION, priority 2015, dated 2019)
